This note sets out measurements from PMC9814568, “Peptide transporter structure reveals binding and action mechanism of a potent PEPT1 and PEPT2 inhibitor” (Communications Chemistry, 2022).

Broadly, the pIC50 is −log10 of the IC50, conventionally taken in molar units. What is called Km is the concentration of substrate that gives half-maximal velocity.

pIC50: −log10 of the molar value.

Series [1] concerns the target T1, YePEPT (Yersinia enterocolitica, UniProt A0A2R9TD79, K314Q/P315G).
T1 construct: gene YEP4_02370; YePEPT^K314Q-P315G, detergent-purified, His-tagged
Put plainly: label-free DSF thermal shift at […] LZNV (no Kd). The format is binding.

In series [2] the target is T2, YePEPT (Yersinia enterocolitica, UniProt A0A2R9TD79, K314A/S412A).
T2 construct: gene YEP4_02370; YePEPT^K314A-S412A, detergent-purified, His-tagged
Put plainly: label-free DSF thermal shift at […] LZNV (no Kd). The format is binding.

Series [3] deals with T3, YePEPT (Yersinia enterocolitica, UniProt A0A2R9TD79, K314A).
T3 construct: gene YEP4_02370; YePEPT-K314A, C-terminal HRV3C site and His10 tag (cleaved for crystallisation)
T3 sequence (A0A2R9TD79 1-511 K314A): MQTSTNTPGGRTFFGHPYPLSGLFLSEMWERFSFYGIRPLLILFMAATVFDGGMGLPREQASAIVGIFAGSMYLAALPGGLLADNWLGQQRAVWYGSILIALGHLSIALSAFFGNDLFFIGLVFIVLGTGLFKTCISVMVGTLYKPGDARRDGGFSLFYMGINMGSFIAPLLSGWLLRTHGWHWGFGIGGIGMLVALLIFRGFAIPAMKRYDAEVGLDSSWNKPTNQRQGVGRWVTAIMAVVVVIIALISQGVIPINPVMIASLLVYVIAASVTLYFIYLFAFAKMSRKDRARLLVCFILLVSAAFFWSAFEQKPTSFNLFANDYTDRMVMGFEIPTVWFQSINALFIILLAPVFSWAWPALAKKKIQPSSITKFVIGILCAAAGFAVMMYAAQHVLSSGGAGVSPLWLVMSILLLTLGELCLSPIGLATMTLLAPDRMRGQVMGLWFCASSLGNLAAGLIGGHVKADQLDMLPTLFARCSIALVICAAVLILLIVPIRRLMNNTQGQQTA
In words: co-crystal structure at […] Å; also thermal shift; IC50 from [3H]Ala-Ala uptake in E. coli cells. The format is cell-based.

For series [4], the system named is C[C@H](N)C(=O)N[C@@H](C)C(=O)O. In words: [3H]Ala-Ala uptake kinetics (Km) in E. coli cells overexpressing the transporter. The format is cell-based, Yersinia enterocolitica.

Turning to `CC(C)[C@H](NC(=O)[C@@H](N)CCCCNC(=O)OCc1ccc([N+](=O)[O-])cc1)C(=O)O` [LZNV, Lys[Z(NO2)]-Val], the “label-free DSF thermal shift at 200-800 μM LZNV (no Kd)” value on YePEPT [1] is recorded as “This variant shows a concentration-dependent stabilisation by LZNV similar to YePEPT^K314A”; at YePEPT [2], “YePEPT^K314A-S412A still showed a strong dose-dependent stabilisation by LZNV”. In addition, on YePEPT [3], the pIC50 was 5.12.
Regarding “YePEPT (Yersinia enterocolitica subsp. palearctica YE-P4; K314A)”, the Km in series [4] is on record as 57.3 µM.
